In patent US20250041307A1, “Uses of Bicyclic Compounds for the Treatment of Diseases” (Athira Pharma, Inc., priority 2021, published 2025):

Experiments:
[1] = system: MDCK cells; test: Cell scattering behavior assay; format: cell-based; design: key: − indicates that the compound failed to significantly promote cell scattering behavior; + indicates maximum potency at or above 100 nM; ++ indicates maximum potency at or above 10 nM; +++ indicates maximum potency at or above 1 nM; ++++ indicates maximum potency at or above 0.1 nM; details: with 5 ng/mL HGF, 24 hours, normalized particle count compared to HGF treatment alone
How it was run: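 MDCK cells starved 2 h in serum-free DMEM, then treated 24 h at 37 °C with compounds plus 5 ng/mL HGF. Cells were ethanol-fixed, WGA488-stained and imaged. Scattering was scored as particle count normalized to stained area, with activity taken as a statistical increase in normalized particle count over HGF alone.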

[2] = system: hepatocyte (HepG2) cell cultures; test: Cytotoxicity assay (LDH release); format: cell-based; details: HepG2 cells, 48 hours, 0.1 to 100 μM
Procedure: This experiment was designed to obtain a preliminary assessment of cytotoxicity.
HepG2 cells were plated in 96-well cell culture plates and allowed to attach overnight at 37° C., 5% CO2 in EMEM+10% FBS. Treatments were made in complete media (EMEM+10% FBS) and included a dilution series of test compounds from 0.1 to 100 μM. Known cytotoxin cerivastatin was used as a positive assay control and prepared at a final concentration of 0.5 μM.
Growth media was replaced with treatment media (EMEM+10% FBS containing test compound dissolved in DMSO) and cells were incubated with test compounds for 48 hours. At the end of the incubation period, supernatant media from each well was transferred to a new plate and LDH assay working solution was added. LDH assay solution undergoes a colorimetric reaction in proportion to the amount of lactate dehydrogenase (an intracellular protein that was only found in the media in the presence of lysed cells) in the media. Color reaction was quantified by measurement of absorbance at a wavelength of 490 nm.
The signal range of the assay was determined by no manipulation in a negative control treatment and full lysis of all cells in a lysis control sample. Compounds that increase the level of cytotoxicity more than 20% above negative control samples were considered cytotoxic in this assay.

[3] = In vitro stability in rat plasma; format: in vitro ADME; details: 5 μM, 37° C.
Procedure: (§1) Bioavailability can be estimated by compound stability when exposed to conditions in the body. As an initial assessment of stability properties in a variety of conditions present in animals, exemplary compounds were tested for stability in a battery of simulated body compartments. Compounds were tested for stability in the following solutions: simulated gastric fluid (SGF: 34.2 mM NaCl, pH 1.2), simulated gastric fluid with the digestive enzyme pepsin (SGF+Enzyme: SGF with 3.2 mg/ml pepsin), simulated intestinal fluid with the mixture of enzymes in porcine pancreatin (SIF+Enzyme: 28.7 mM NaH2PO4, 105.7 mM NaCl, pH 6.8, 10 mg/ml pancreatin), rat plasma, and human plasma.
(§2) Test compounds were incubated at a final concentration of 5 μM in the above solutions at 37° C. with samples removed at the following time points: 0, 1, 2, and 4 hours. Reactions were stopped and prepared for quantification by addition of excess quench solution containing an internal standard (acetonitrile, 200 ng/mL bucetin). Test compound and internal standard in each sample was quantified by LC-MS/MS, and after internal normalization to bucetin, test compound concentration was expressed as a percentage of concentration at the 0-hour time point. Stability in the relevant test solution was then determined by the percent remaining at the 4-hour time point.

[4] = In vitro stability in human plasma; format: in vitro ADME; details: 5 μM, 37° C.
Procedure: as §1, §2

[5] = In vivo tissue distribution; design: species or system Sprague-dawley rats; details: rat, 10 minutes post administration
Procedure: The rate of distribution to target tissues is an important feature of therapeutic molecules. Tissue distribution of exemplary compounds was performed in mixed-sex Sprague-dawley rats. Test compounds were delivered via tail vein injection (IV) and tissues were collected at Tmax (10 minutes post administration). Animals were deeply anesthetized with isoflurane and whole blood was collected from the right atrium and processed by centrifugation to produce plasma. Animals were then fully perfused with PBS administered to the left ventricle to prevent blood contamination of tissues.
Tissues were collected and homogenized, and compound content in the target tissue was quantified by LC-MS/MS. Tissue distribution rates were determined by dividing the tissue concentration of compound by the plasma concentration and multiplying by 100.

CCC(C)CN1CC2N(C(=O)c3ccc(OC(F)F)cc3)CCC(=O)N2[C@@H](C)C1=O (some centres unmarked) [Compound 2a]
Potency [1]: + (+ indicates maximum potency at or above 100 nM) | Cytotoxicity [2]: ++++ (++++ indicates non-toxic at 100 μM) | Rat Plasma, compound remaining after 4 hours [3]: ++ (++ indicates 40-79% compound remaining after 4 hours) | Human Plasma, compound remaining after 4 hours [4]: ++ (++ indicates 40-79% compound remaining after 4 hours) | Tissue Distribution (% Plasma exposure at 10 min post IV dose) Brain [5]: ++ (++ indicates distribution between 5 and 39%) | Tissue Distribution (% Plasma exposure at 10 min post IV dose) Cerebellum [5]: + (+ indicates distribution between 0.05 and 5%) | Tissue Distribution (% Plasma exposure at 10 min post IV dose) Cortex [5]: ++ (++ indicates distribution between 5 and 39%) | Tissue Distribution (% Plasma exposure at 10 min post IV dose) Hippocampus [5]: ++ (++ indicates distribution between 5 and 39%) | Tissue Distribution (% Plasma exposure at 10 min post IV dose) Muscle [5]: ++++ (++++ indicates distribution above 70%) | Tissue Distribution (% Plasma exposure at 10 min post IV dose) Sciatic Nerve [5]: ++++ (++++ indicates distribution above 70%)

CCC(C)CN1CC2N(C(=O)c3ccc(O)cc3)CCC(=O)N2[C@@H](C)C1=O (some centres unmarked) [Compound 8a]
Potency [1]: +++ (+++ indicates maximum potency at or above 1 nM) | Cytotoxicity [2]: ++++ (++++ indicates non-toxic at 100 μM) | Rat Plasma, compound remaining after 4 hours [3]: ++++ (++++ indicates 100% compound remaining after 4 hours) | Human Plasma, compound remaining after 4 hours [4]: ++ (++ indicates 40-79% compound remaining after 4 hours)

CCC(C)CN1CC2N(Cc3ccc(OC(F)F)cc3)CCC(=O)N2[C@@H](C)C1=O (some centres unmarked) [Compound 6a]
Potency [1]: +++ (+++ indicates maximum potency at or above 1 nM) | Cytotoxicity [2]: ++++ (++++ indicates non-toxic at 100 μM) | Rat Plasma, compound remaining after 4 hours [3]: +++ (+++ indicates 80-99% compound remaining after 4 hours) | Human Plasma, compound remaining after 4 hours [4]: ++ (++ indicates 40-79% compound remaining after 4 hours) | Tissue Distribution (% Plasma exposure at 10 min post IV dose) Brain [5]: ++ (++ indicates distribution between 5 and 39%) | Tissue Distribution (% Plasma exposure at 10 min post IV dose) Cerebellum [5]: ++ (++ indicates distribution between 5 and 39%) | Tissue Distribution (% Plasma exposure at 10 min post IV dose) Cortex [5]: ++ (++ indicates distribution between 5 and 39%) | Tissue Distribution (% Plasma exposure at 10 min post IV dose) Hippocampus [5]: ++ (++ indicates distribution between 5 and 39%) | Tissue Distribution (% Plasma exposure at 10 min post IV dose) Muscle [5]: ++++ (++++ indicates distribution above 70%) | Tissue Distribution (% Plasma exposure at 10 min post IV dose) Sciatic Nerve [5]: ++++ (++++ indicates distribution above 70%)

CCC(C)CN1CC2N(C(=O)c3ccc(C(F)(F)F)c(Cl)c3)CCC(=O)N2C(C)C1=O (centres unmarked) [Compound 12, 1-(3-chloro-4-(trifluoromethyl)benzoyl)-6-methyl-8-(2-methylbutyl)hexahydro-4H-pyrazino[1,2-a]pyrimidine-4,7(6H)-dione]
Potency [1]: ++ (++ indicates maximum potency at or above 10 nM) | Cytotoxicity [2]: ++++ (++++ indicates non-toxic at 100 μM) | Rat Plasma, compound remaining after 4 hours [3]: ++++ (++++ indicates 100% compound remaining after 4 hours) | Human Plasma, compound remaining after 4 hours [4]: +++ (+++ indicates 80-99% compound remaining after 4 hours) | Tissue Distribution (% Plasma exposure at 10 min post IV dose) Brain [5]: ++ (++ indicates distribution between 5 and 39%) | Tissue Distribution (% Plasma exposure at 10 min post IV dose) Cerebellum [5]: ++ (++ indicates distribution between 5 and 39%) | Tissue Distribution (% Plasma exposure at 10 min post IV dose) Cortex [5]: ++ (++ indicates distribution between 5 and 39%) | Tissue Distribution (% Plasma exposure at 10 min post IV dose) Hippocampus [5]: ++ (++ indicates distribution between 5 and 39%) | Tissue Distribution (% Plasma exposure at 10 min post IV dose) Sciatic Nerve [5]: +++ (+++ indicates distribution between 40 and 69%)

CCC(C)CN1CC2N(Cc3ccc(C(F)(F)F)cc3)CCC(=O)N2[C@@H](C)C1=O (some centres unmarked) [Compound 5a]
Potency [1]: ++++ (++++ indicates maximum potency at or above 0.1 nM) | Cytotoxicity [2]: ++++ (++++ indicates non-toxic at 100 μM) | Rat Plasma, compound remaining after 4 hours [3]: ++ (++ indicates 40-79% compound remaining after 4 hours) | Human Plasma, compound remaining after 4 hours [4]: ++ (++ indicates 40-79% compound remaining after 4 hours) | Tissue Distribution (% Plasma exposure at 10 min post IV dose) Brain [5]: ++++ (++++ indicates distribution above 70%) | Tissue Distribution (% Plasma exposure at 10 min post IV dose) Cerebellum [5]: ++++ (++++ indicates distribution above 70%) | Tissue Distribution (% Plasma exposure at 10 min post IV dose) Cortex [5]: ++++ (++++ indicates distribution above 70%) | Tissue Distribution (% Plasma exposure at 10 min post IV dose) Hippocampus [5]: ++++ (++++ indicates distribution above 70%)

CCC(C)CN1CC2N(Cc3ccc(O)nc3)CCC(=O)N2[C@@H](C)C1=O (some centres unmarked) [Compound 7a]
Potency [1]: ++ (++ indicates maximum potency at or above 10 nM) | Cytotoxicity [2]: ++++ (++++ indicates non-toxic at 100 μM) | Tissue Distribution (% Plasma exposure at 10 min post IV dose) Brain [5]: + (+ indicates distribution between 0.05 and 5%) | Tissue Distribution (% Plasma exposure at 10 min post IV dose) Cerebellum [5]: + (+ indicates distribution between 0.05 and 5%) | Tissue Distribution (% Plasma exposure at 10 min post IV dose) Cortex [5]: + (+ indicates distribution between 0.05 and 5%) | Tissue Distribution (% Plasma exposure at 10 min post IV dose) Hippocampus [5]: + (+ indicates distribution between 0.05 and 5%) | Tissue Distribution (% Plasma exposure at 10 min post IV dose) Muscle [5]: ++ (++ indicates distribution between 5 and 39%) | Tissue Distribution (% Plasma exposure at 10 min post IV dose) Sciatic Nerve [5]: ++++ (++++ indicates distribution above 70%)

CCC(C)CN1CC2N(C(=O)c3ccc(C(F)(F)F)cc3)CCC(=O)N2[C@@H](C)C1=O (some centres unmarked) [Compound 1a]
Potency [1]: ++++ (++++ indicates maximum potency at or above 0.1 nM) | Cytotoxicity [2]: ++++ (++++ indicates non-toxic at 100 μM) | Rat Plasma, compound remaining after 4 hours [3]: ++ (++ indicates 40-79% compound remaining after 4 hours) | Human Plasma, compound remaining after 4 hours [4]: ++ (++ indicates 40-79% compound remaining after 4 hours) | Tissue Distribution (% Plasma exposure at 10 min post IV dose) Brain [5]: ++ (++ indicates distribution between 5 and 39%) | Tissue Distribution (% Plasma exposure at 10 min post IV dose) Cerebellum [5]: ++ (++ indicates distribution between 5 and 39%) | Tissue Distribution (% Plasma exposure at 10 min post IV dose) Cortex [5]: ++ (++ indicates distribution between 5 and 39%) | Tissue Distribution (% Plasma exposure at 10 min post IV dose) Hippocampus [5]: ++ (++ indicates distribution between 5 and 39%)

CC1C(=O)N(CCC2CCCC2)CC2N(C(=O)c3ccc(C(F)(F)F)cc3)CCC(=O)N12 (centres unmarked) [Compound 19]
Potency [1]: +++ (+++ indicates maximum potency at or above 1 nM) | Cytotoxicity [2]: ++++ (++++ indicates non-toxic at 100 μM) | Rat Plasma, compound remaining after 4 hours [3]: +++ (+++ indicates 80-99% compound remaining after 4 hours) | Human Plasma, compound remaining after 4 hours [4]: +++ (+++ indicates 80-99% compound remaining after 4 hours)

CCCCN1CC2N(C(=O)c3ccc(OC(F)F)cc3)CCC(=O)N2C(C)C1=O (centres unmarked) [Compound 17]
Potency [1]: − | Cytotoxicity [2]: ++++ (++++ indicates non-toxic at 100 μM) | Rat Plasma, compound remaining after 4 hours [3]: ++ (++ indicates 40-79% compound remaining after 4 hours) | Human Plasma, compound remaining after 4 hours [4]: +++ (+++ indicates 80-99% compound remaining after 4 hours)
